Results reported in publication PMC8996072, “Ag120-Mediated Inhibition of ASCT2-Dependent Glutamine Transport has an Anti-Tumor Effect on Colorectal Cancer Cells” (Frontiers in Pharmacology, 2022).

Target: T1, ASCT2 (Homo sapiens, UniProt Q15758)
T1 construct: gene SLC1A5
T1 sequence (Q15758 1-541): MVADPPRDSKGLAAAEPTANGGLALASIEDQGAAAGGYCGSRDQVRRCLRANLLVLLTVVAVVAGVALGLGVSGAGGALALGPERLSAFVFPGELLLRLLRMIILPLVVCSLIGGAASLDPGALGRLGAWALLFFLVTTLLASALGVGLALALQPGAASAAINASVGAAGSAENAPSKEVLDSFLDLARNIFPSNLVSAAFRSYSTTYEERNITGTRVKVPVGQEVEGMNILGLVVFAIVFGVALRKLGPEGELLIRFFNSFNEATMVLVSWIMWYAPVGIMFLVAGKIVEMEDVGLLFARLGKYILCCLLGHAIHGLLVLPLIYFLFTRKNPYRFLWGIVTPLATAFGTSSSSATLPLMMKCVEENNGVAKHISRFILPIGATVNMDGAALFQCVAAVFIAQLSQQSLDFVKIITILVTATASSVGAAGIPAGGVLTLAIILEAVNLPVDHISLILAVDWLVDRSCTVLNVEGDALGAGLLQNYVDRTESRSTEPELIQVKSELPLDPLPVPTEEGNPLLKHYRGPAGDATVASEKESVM
Assay: SPR (Biacore T200), purified human ASCT2
Format: binding

Kd: 5.91 µM
SMILES: N#Cc1ccnc(N2C(=O)CC[C@H]2C(=O)N(c2cncc(F)c2)[C@H](C(=O)NC2CC(F)(F)C2)c2ccccc2Cl)c1 [Ag120]
